Assay results taken from ChEMBL document CHEMBL5154652, “Design, synthesis and anti-hepatocellular carcinoma activity of 3-arylisoquinoline alkaloids” (Eur J Med Chem, 2022).
Active and inactive are the calls of the source. The rule behind the calls is not given here.

Tests used:
[1] = test system: SK-HEP1; assay: Antiproliferative activity against human SK-HEP1 cells after 72 hrs by MTT assay; format: functional, cell-based; conditions: SK-HEP1, 72 h
[2] = test system: HCT-116; assay: Antiproliferative activity against human HCT-116 cells after 72 hrs by MTT assay; format: functional, cell-based; conditions: HCT-116, 72 h
[3] = test system: HCCLM9; assay: Antiproliferative activity against human HCCLM9 cells after 72 hrs by MTT assay; format: functional, cell-based; conditions: HCCLM9, 72 h
[4] = test system: HL-60; assay: Antiproliferative activity against human HL-60 cells after 72 hrs by MTT assay; format: functional, cell-based; conditions: HL-60, 72 h
[5] = test system: MCF7; assay: Antiproliferative activity against human MCF7 cells after 72 hrs by MTT assay; format: functional, cell-based; conditions: MCF7, 72 h
[6] = test system: HepG2; assay: Antiproliferative activity against human HepG2 cells after 72 hrs by MTT assay; format: functional, cell-based; conditions: HepG2, 72 h
[7] = test system: HT-29; assay: Antiproliferative activity against human HT-29 cells after 72 hrs by MTT assay; format: functional, cell-based; conditions: HT-29, 72 h
[8] = test system: BGC-823; assay: Antiproliferative activity against human BGC-823 cells after 72 hrs by MTT assay; format: functional, cell-based; conditions: BGC-823, 72 h
[9] = test system: Huh-7; assay: Antiproliferative activity against human Huh-7 cells after 72 hrs by MTT assay; format: functional, cell-based; conditions: Huh-7, 72 h
[10] = test system: SGC-7901; assay: Antiproliferative activity against human SGC-7901 cells after 72 hrs by MTT assay; format: functional, cell-based; conditions: SGC-7901, 72 h
[11] = test system: U-251; assay: Antiproliferative activity against human U-251 cells after 72 hrs by MTT assay; format: functional, cell-based; conditions: U-251, 72 h
[12] = test system: MDA-MB-231; assay: Antiproliferative activity against human MDA-MB-231 cells after 72 hrs by MTT assay; format: functional, cell-based; conditions: MDA-MB-231, 72 h
[13] = test system: L02; assay: Antiproliferative activity against human L02 cells after 72 hrs by MTT assay; format: functional, cell-based; conditions: L02, 72 h
[14] = test system: RKO; assay: Antiproliferative activity against human RKO cells after 72 hrs by MTT assay; format: functional, cell-based
[15] = test system: SW480; assay: Antiproliferative activity against human SW480 cells after 72 hrs by MTT assay; format: functional, cell-based; conditions: SW480, 72 h
[16] = test system: A549; assay: Antiproliferative activity against human A549 cells after 72 hrs by MTT assay; format: functional, cell-based; conditions: A549, 72 h
[17] = test system: HGC-27; assay: Antiproliferative activity against human HGC-27 cells after 72 hrs by MTT assay; format: functional, cell-based; conditions: HGC-27, 72 h
[18] = target: DNA topoisomerase 1 (Homo sapiens) (UniProt P11387); assay: Inhibition of DNA topoisomerase 1 (unknown origin) at 25 to 50 uM measured by agar gel electrophoresis relative to control; conditions: dose 25-50 µM
DNA topoisomerase 1 (Homo sapiens), sequence (P11387 whole entry): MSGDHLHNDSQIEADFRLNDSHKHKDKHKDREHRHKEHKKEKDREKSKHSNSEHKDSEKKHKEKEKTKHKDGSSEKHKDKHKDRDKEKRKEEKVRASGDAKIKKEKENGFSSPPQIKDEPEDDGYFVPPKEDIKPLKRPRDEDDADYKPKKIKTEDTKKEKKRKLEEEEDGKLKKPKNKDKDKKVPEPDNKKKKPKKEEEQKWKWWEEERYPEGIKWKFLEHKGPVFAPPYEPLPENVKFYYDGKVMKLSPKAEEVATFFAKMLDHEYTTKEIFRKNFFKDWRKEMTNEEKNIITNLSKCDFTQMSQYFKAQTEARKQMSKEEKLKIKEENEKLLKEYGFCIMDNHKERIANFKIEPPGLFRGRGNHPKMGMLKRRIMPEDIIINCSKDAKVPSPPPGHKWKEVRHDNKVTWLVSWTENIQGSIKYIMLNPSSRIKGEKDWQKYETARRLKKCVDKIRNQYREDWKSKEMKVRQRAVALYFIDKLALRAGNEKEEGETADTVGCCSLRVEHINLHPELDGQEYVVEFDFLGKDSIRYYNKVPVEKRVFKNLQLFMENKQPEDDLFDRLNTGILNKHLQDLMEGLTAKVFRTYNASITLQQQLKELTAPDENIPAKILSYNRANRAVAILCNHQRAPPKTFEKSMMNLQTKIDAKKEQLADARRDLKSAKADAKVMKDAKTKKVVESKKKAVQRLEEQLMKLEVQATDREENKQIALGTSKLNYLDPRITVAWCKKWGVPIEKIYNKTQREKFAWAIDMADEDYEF

Compound	IC50 [1] [µM]	IC50 [2] [µM]	IC50 [3] [µM]	IC50 [4] [µM]	IC50 [5] [µM]	IC50 [6] [µM]	IC50 [7] [µM]	IC50 [8] [µM]	IC50 [9] [µM]	IC50 [10] [µM]	IC50 [11] [µM]	IC50 [12] [µM]	IC50 [15] [µM]	IC50 [16] [µM]	inhibition [18]	IC50 [13] [µM]	IC50 [14] [µM]	IC50 [17] [µM]
CNCCc1cc(OC)c(OC)cc1-c1cc2ccc3c(c2cn1)OCO3	69.9	> 150	20.2	> 150	52.8	–	122	15.8	42.9	> 150	43.3	68.7	21.8	–	–	> 150	> 150	93.9
OCc1c(-c2cc3c4c(ccc3cn2)OCO4)ccc2c1OCO2	–	> 150	> 150	–	–	> 150	> 150	–	40.8	–	–	–	> 150	–	–	> 150	> 150	–
OCc1cc2c(cc1-c1cc3ccc4c(c3cn1)OCO4)OCO2	–	46.7	32.7	–	–	–	46.7	–	42.3	–	–	–	36.9	–	–	–	87.4	–
COCCc1cc(OC)c(OC)cc1-c1cc2ccc3c(c2cn1)OCO3	–	> 150	> 150	> 150	32.4	> 150	> 150	> 150	77	> 150	> 150	128	105	> 150	–	> 150	> 150	120
CCOC(=O)N(C)CCc1cc2c(cc1-c1cc3ccc4c(c3cn1)OCO4)OCO2	103	> 150	25.1	> 150	69.7	27.3	96.6	49.9	19.2	28.8	51.8	36.7	28.6	> 150	–	149	91.6	99.8
CN(C)CCCCc1cc2c(cc1-c1cc3ccc4c(c3cn1)OCO4)OCO2	35.6	97	38.5	–	53.6	55.4	41.6	83.5	37.8	39	15	26.6	63.2	81.9	–	–	93.1	38.9
CNCCc1cc2c(cc1-c1cc3ccc4c(c3cn1)OCO4)OCO2	28.2	> 150	10	113	49.9	45	23	25.9	15.5	–	19.1	19.3	25.4	–	–	> 150	63.5	20.9
CN(C=O)CCc1cc2c(cc1-c1cc3ccc4c(c3cn1)OCO4)OCO2	145	86	> 150	> 150	130	74	> 150	79.4	63.9	> 150	53.4	60.9	> 150	96	–	> 150	> 150	69
COc1cc(CCN(C)C)c(-c2cc3ccc4c(c3cn2)OCO4)cc1OC	–	> 150	32.4	> 150	94.6	> 150	146	31.6	59.5	81.9	65.1	103	40.6	> 150	–	> 150	> 150	> 150

Continued by falling IC50 [3], values first:

IC50 [1] [µM]	IC50 [2] [µM]	IC50 [3] [µM]	IC50 [4] [µM]	IC50 [5] [µM]	IC50 [6] [µM]	IC50 [7] [µM]	IC50 [8] [µM]	IC50 [9] [µM]	IC50 [10] [µM]	IC50 [11] [µM]	IC50 [12] [µM]	IC50 [15] [µM]	IC50 [16] [µM]	inhibition [18]	Compound	IC50 [13] [µM]	IC50 [14] [µM]	IC50 [17] [µM]
32.4	> 150	21	130	61.7	72.5	> 150	33.6	17.6	45.1	28.5	30.2	36.3	65.2	–	CN(C)CCc1cc2c(cc1-c1cc3ccc4c(c3cn1)OCO4)OCO2	–	> 150	78.5
22.2	80.9	20.4	> 150	42.8	35.7	41.1	44.9	19	41.6	27.7	39.5	29.4	52.1	–	CNCCCc1cc2c(cc1-c1cc3ccc4c(c3cn1)OCO4)OCO2	90.4	106	73.2
38.2	> 150	15.6	93.6	60.4	80.4	96.6	51.8	20	55.5	24.5	35.6	40.6	65.7	–	CN(C)CCCc1cc2c(cc1-c1cc3ccc4c(c3cn1)OCO4)OCO2	> 150	126	> 150
–	–	12.5	–	–	46.7	46.7	–	25.5	–	–	–	74.7	–	–	CN(C)Cc1c(-c2cc3c4c(ccc3cn2)OCO4)ccc2c1OCO2	> 150	47	–
16	57.6	10.4	–	54.6	23.2	27.5	26.7	13.7	20	10.8	19.6	15.2	18.7	–	CNCCCCc1cc2c(cc1-c1cc3ccc4c(c3cn1)OCO4)OCO2	–	81.7	55.3
17.2	67.2	8.83	115	–	20.8	36	–	11.2	48.2	24.6	12.8	8.54	17.4	Active	CN(C)Cc1cc2c(cc1-c1cc3ccc4c(c3cn1)OCO4)OCO2	> 150	28.7	19.1
–	26.7	7.25	–	–	26.7	44.5	–	20.2	–	–	–	42.7	–	–	CNCc1c(-c2cc3c4c(ccc3cn2)OCO4)ccc2c1OCO2	74.6	26.7	–
